{
  "source": "BindingDB's records for doi:10.1016/j.bmcl.2010.03.092",
  "about": "(Takeda California, 2010)",
  "data": [
    {"target": "Histone deacetylase 2 (Homo sapiens) (UniProt Q92769)", "sequence (Q92769 whole entry, looked up)": "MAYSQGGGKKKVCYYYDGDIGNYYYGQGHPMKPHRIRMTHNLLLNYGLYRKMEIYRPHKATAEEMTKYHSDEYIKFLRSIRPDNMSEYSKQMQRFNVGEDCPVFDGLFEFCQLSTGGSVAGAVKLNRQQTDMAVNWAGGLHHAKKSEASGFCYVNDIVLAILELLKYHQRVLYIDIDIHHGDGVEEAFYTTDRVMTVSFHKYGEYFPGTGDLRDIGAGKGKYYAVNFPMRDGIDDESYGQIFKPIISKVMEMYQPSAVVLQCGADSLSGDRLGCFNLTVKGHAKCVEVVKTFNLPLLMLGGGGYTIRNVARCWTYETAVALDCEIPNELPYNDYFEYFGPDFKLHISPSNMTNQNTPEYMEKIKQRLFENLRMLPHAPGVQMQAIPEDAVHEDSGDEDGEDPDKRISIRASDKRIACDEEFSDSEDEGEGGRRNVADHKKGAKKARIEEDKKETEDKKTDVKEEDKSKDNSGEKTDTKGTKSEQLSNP", "assay": "Inhibition of human recombinant HDAC2", "units": {"IC50": "nM"}, "values": [
      {"smiles": "Cc1nc(C)n(CCc2ccccc2)c1-c1cccc(/C=C/C(=O)NO)c1", "note": "[3-(3-(2,4-dimethyl-1-phenethyl-1H-imidazol-5-yl)phenyl)-N-hydroxyacrylamide]", "IC50": 79},
      {"smiles": "Cc1c(-c2ccccc2)nc(-c2cccc(/C=C/C(=O)NO)c2)n1CCc1ccccc1", "note": "[N-hydroxy-3-(3-(5-methyl-1-phenethyl-4-phenyl-1H-imidazol-2-yl)phenyl)acrylamide]", "IC50": 5},
      {"smiles": "Cc1nc(-c2cccc(/C=C/C(=O)NO)c2)n(CCc2ccccc2)c1C", "note": "[3-(3-(4,5-dimethyl-1-phenethyl-1H-imidazol-2-yl)phenyl)-N-hydroxyacrylamide]", "IC50": 7.9},
      {"smiles": "Cc1c(-c2ccccc2)nc(-c2cccc(/C=C/C(=O)NO)c2)n1[C@@H]1CCCN(C(C)C)C1", "note": "[(R)-N-hydroxy-3-(3-(1-(1-isopropylpiperidin-3-yl)-5-methyl-4-phenyl-1H-imidazol-2-yl)phenyl)acrylamide]", "IC50": 5},
      {"smiles": "O=C(/C=C/c1cccc(-c2nc3ccccc3n2CCN2CCCCC2)c1)NO", "note": "[N-hydroxy-3-(3-(1-(2-(piperidin-1-yl)ethyl)-1H-benzo[d]imidazol-2-yl)phenyl)acrylamide]", "IC50": 10},
      {"smiles": "Cc1c(Cc2ccccc2)nc(-c2cccc(/C=C/C(=O)NO)c2)n1[C@@H]1CCCN(C)C1", "note": "[(R)-3-(3-(4-benzyl-5-methyl-1-(1-methylpiperidin-3-yl)-1H-imidazol-2-yl)phenyl)-N-hydroxyacrylamide]", "IC50": 6.3},
      {"smiles": "CCN1CCC[C@@H](n2c(-c3cccc(/C=C/C(=O)NO)c3)nc3ccccc32)C1", "note": "[(R)-3-(3-(1-(1-ethylpiperidin-3-yl)-1H-benzo[d]imidazol-2-yl)phenyl)-N-hydroxyacrylamide]", "IC50": 10},
      {"smiles": "CCN1CCC[C@@H](n2c(Cc3ccccc3)nc(C)c2-c2cccc(/C=C/C(=O)NO)c2)C1", "note": "[(R)-3-(3-(2-benzyl-1-(1-ethylpiperidin-3-yl)-4-methyl-1H-imidazol-5-yl)phenyl)-N-hydroxyacrylamide]", "IC50": 120},
      {"smiles": "CCN1CCC[C@@H](n2c(-c3cccc(/C=C/C(=O)NO)c3)nc(C)c2C)C1", "note": "[(R)-3-(3-(1-(1-ethylpiperidin-3-yl)-4,5-dimethyl-1H-imidazol-2-yl)phenyl)-N-hydroxyacrylamide]", "IC50": 12},
      {"smiles": "Cc1nc(-c2cccc(/C=C/C(=O)NO)c2)n([C@@H]2CCCN(C(C)C)C2)c1-c1ccccc1", "note": "[(R)-N-hydroxy-3-(3-(1-(1-isopropylpiperidin-3-yl)-4-methyl-5-phenyl-1H-imidazol-2-yl)phenyl)acrylamide]", "IC50": 6.3},
      {"smiles": "CCN1CCCC(n2c(-c3cccc(/C=C/C(=O)NO)c3)nc3ccccc32)C1", "note": "(racemic) [(+/-)-3-(3-(1-(1-ethylpiperidin-3-yl)-1H-benzo[d]imidazol-2-yl)phenyl)-N-hydroxyacrylamide]", "IC50": 20},
      {"smiles": "Cc1nc(-c2cccc(/C=C/C(=O)NO)c2)n([C@@H]2CCCN(C)C2)c1-c1ccccc1", "note": "[(R)-N-hydroxy-3-(3-(4-methyl-1-(1-methylpiperidin-3-yl)-5-phenyl-1H-imidazol-2-yl)phenyl)acrylamide]", "IC50": 10},
      {"smiles": "Cc1c(Cc2ccccc2)nc(-c2cccc(/C=C/C(=O)NO)c2)n1CCc1ccccc1", "note": "[3-(3-(4-benzyl-5-methyl-1-phenethyl-1H-imidazol-2-yl)phenyl)-N-hydroxyacrylamide]", "IC50": 7.9},
      {"smiles": "Cc1c(-c2ccccc2)nc(-c2cccc(/C=C/C(=O)NO)c2)n1CCN1CCOCC1", "note": "[N-hydroxy-3-(3-(5-methyl-1-(2-morpholinoethyl)-4-phenyl-1H-imidazol-2-yl)phenyl)acrylamide]", "IC50": 10},
      {"smiles": "O=C(/C=C/c1cccc(-c2nc3ccccc3n2CCc2ccccc2)c1)NO", "note": "[N-hydroxy-3-(3-(1-phenethyl-1H-benzo[d]imidazol-2-yl)phenyl)acrylamide]", "IC50": 7.9},
      {"smiles": "CCN(CC)CCn1c(-c2cccc(/C=C/C(=O)NO)c2)nc2ccccc21", "note": "[3-(3-(1-(2-(diethylamino)ethyl)-1H-benzo[d]imidazol-2-yl)phenyl)-N-hydroxyacrylamide]", "IC50": 31},
      {"smiles": "Cc1c(Cc2ccccc2)nc(-c2cccc(/C=C/C(=O)NO)c2)n1CCN1CCOCC1", "note": "[3-(3-(4-benzyl-5-methyl-1-(2-morpholinoethyl)-1H-imidazol-2-yl)phenyl)-N-hydroxyacrylamide]", "IC50": 12},
      {"smiles": "O=C(/C=C/c1cccc(-c2nc3ccccc3n2-c2ccccc2)c1)NO", "note": "[N-hydroxy-3-(3-(1-phenyl-1H-benzo[d]imidazol-2-yl)phenyl)acrylamide]", "IC50": 63},
      {"smiles": "Cc1nc(-c2cccc(/C=C/C(=O)NO)c2)n(CCN2CCOCC2)c1-c1ccccc1", "note": "[N-hydroxy-3-(3-(4-methyl-1-(2-morpholinoethyl)-5-phenyl-1H-imidazol-2-yl)phenyl)acrylamide]", "IC50": 31},
      {"smiles": "CC(C)n1c(-c2cccc(/C=C/C(=O)NO)c2)nc2ccccc21", "note": "[N-hydroxy-3-(3-(1-isopropyl-1H-benzo[d]imidazol-2-yl)phenyl)acrylamide]", "IC50": 79},
      {"smiles": "Cc1nc(-c2cccc(/C=C/C(=O)NO)c2)n(CCN2CCOCC2)c1C", "note": "[3-(3-(4,5-dimethyl-1-(2-morpholinoethyl)-1H-imidazol-2-yl)phenyl)-N-hydroxyacrylamide]", "IC50": 31},
      {"smiles": "O=C(/C=C/c1cccc(-c2nc3ccccc3n2CC2CCNCC2)c1)NO", "note": "[N-hydroxy-3-(3-(1-(piperidin-4-ylmethyl)-1H-benzo[d]imidazol-2-yl)phenyl)acrylamide]", "IC50": 160},
      {"smiles": "Cc1nc(-c2cccc(/C=C/C(=O)NO)c2)n(CCN2CCOCC2)c1Cc1ccccc1", "note": "[3-(3-(5-benzyl-4-methyl-1-(2-morpholinoethyl)-1H-imidazol-2-yl)phenyl)-N-hydroxyacrylamide]", "IC50": 10},
      {"smiles": "CCN1CCC[C@H](n2c(-c3cccc(/C=C/C(=O)NO)c3)nc3ccccc32)C1", "note": "[(S)-3-(3-(1-(1-ethylpiperidin-3-yl)-1H-benzo[d]imidazol-2-yl)phenyl)-N-hydroxyacrylamide]", "IC50": 31},
      {"smiles": "O=C(/C=C/c1cccc(-c2nc3ccccc3n2[C@@H]2CCCNC2)c1)NO", "note": "[(R)-N-hydroxy-3-(3-(1-(piperidin-3-yl)-1H-benzo[d]imidazol-2-yl)phenyl)acrylamide]", "IC50": 12},
      {"smiles": "O=C(/C=C/c1cccc(-c2nc3ccccc3n2CCN2CCOCC2)c1)NO", "note": "[N-hydroxy-3-(3-(1-(2-morpholinoethyl)-1H-benzo[d]imidazol-2-yl)phenyl)acrylamide]", "IC50": 50},
      {"smiles": "Cc1nc(-c2cccc(/C=C/C(=O)NO)c2)n(CCc2ccccc2)c1Cc1ccccc1", "note": "[3-(3-(5-benzyl-4-methyl-1-phenethyl-1H-imidazol-2-yl)phenyl)-N-hydroxyacrylamide]", "IC50": 5},
      {"smiles": "O=C(/C=C/c1cccc(-c2nc3ccccc3[nH]2)c1)NO", "note": "[3-(3-(1H-benzo[d]imidazol-2-yl)phenyl)-N-hydroxyacrylamide]", "IC50": 100},
      {"smiles": "O=C(/C=C/c1cccc(-c2nc3ccccc3n2CCCc2ccccc2)c1)NO", "note": "[N-hydroxy-3-(3-(1-(3-phenylpropyl)-1H-benzo[d]imidazol-2-yl)phenyl)acrylamide]", "IC50": 12},
      {"smiles": "O=C(/C=C/c1cccc(-c2nc3ccccc3n2CCN2CCCC2)c1)NO", "note": "[N-hydroxy-3-(3-(1-(2-(pyrrolidin-1-yl)ethyl)-1H-benzo[d]imidazol-2-yl)phenyl)acrylamide]", "IC50": 16},
      {"smiles": "O=C(/C=C/c1cccc(-c2nc3ccccc3n2Cc2ccccc2)c1)NO", "note": "[3-(3-(1-benzyl-1H-benzo[d]imidazol-2-yl)phenyl)-N-hydroxyacrylamide]", "IC50": 50},
      {"smiles": "Cn1c(-c2cccc(/C=C/C(=O)NO)c2)nc2ccccc21", "note": "[N-hydroxy-3-(3-(1-methyl-1H-benzo[d]imidazol-2-yl)phenyl)acrylamide]", "IC50": 120},
      {"smiles": "CC(C)N(CCn1c(-c2cccc(/C=C/C(=O)NO)c2)nc2ccccc21)C(C)C", "note": "[3-(3-(1-(2-(diisopropylamino)ethyl)-1H-benzo[d]imidazol-2-yl)phenyl)-N-hydroxyacrylamide]", "IC50": 40},
      {"smiles": "COc1ccc(-n2c(-c3cccc(/C=C/C(=O)NO)c3)nc3ccccc32)cc1", "note": "[N-hydroxy-3-(3-(1-(4-methoxyphenyl)-1H-benzo[d]imidazol-2-yl)phenyl)acrylamide]", "IC50": 40},
      {"smiles": "CCN1CCC[C@@H](n2c(-c3cccc(/C=C/C(=O)NO)c3)nc(Cc3ccccc3)c2C)C1", "note": "[(R)-3-(3-(4-benzyl-1-(1-ethylpiperidin-3-yl)-5-methyl-1H-imidazol-2-yl)phenyl)-N-hydroxyacrylamide]", "IC50": 10},
      {"smiles": "CN1CCC[C@@H](n2c(-c3cccc(/C=C/C(=O)NO)c3)nc3ccccc32)C1", "note": "[(R)-N-hydroxy-3-(3-(1-(1-methylpiperidin-3-yl)-1H-benzo[d]imidazol-2-yl)phenyl)acrylamide]", "IC50": 10},
      {"smiles": "C[C@H](c1ccccc1)n1c(-c2cccc(/C=C/C(=O)NO)c2)nc2ccccc21", "note": "[(R)-N-hydroxy-3-(3-(1-(1-phenylethyl)-1H-benzo[d]imidazol-2-yl)phenyl)acrylamide]", "IC50": 25},
      {"smiles": "Cc1nc(-c2cccc(/C=C/C(=O)NO)c2)n(CCc2ccccc2)c1-c1ccccc1", "note": "[N-hydroxy-3-(3-(4-methyl-1-phenethyl-5-phenyl-1H-imidazol-2-yl)phenyl)acrylamide]", "IC50": 7.9},
      {"smiles": "Cc1c(-c2ccccc2)nc(-c2cccc(/C=C/C(=O)NO)c2)n1[C@@H]1CCCN(C)C1", "note": "[(R)-N-hydroxy-3-(3-(5-methyl-1-(1-methylpiperidin-3-yl)-4-phenyl-1H-imidazol-2-yl)phenyl)acrylamide]", "IC50": 5},
      {"smiles": "CCN1CCC[C@@H](n2c(-c3cccc(/C=C/C(=O)NO)c3)nc(C)c2-c2ccccc2)C1", "note": "[(R)-3-(3-(1-(1-ethylpiperidin-3-yl)-4-methyl-5-phenyl-1H-imidazol-2-yl)phenyl)-N-hydroxyacrylamide]", "IC50": 7.9},
      {"smiles": "Cc1nc(Cc2ccccc2)n(CCc2ccccc2)c1-c1cccc(/C=C/C(=O)NO)c1", "note": "[3-(3-(2-benzyl-4-methyl-1-phenethyl-1H-imidazol-5-yl)phenyl)-N-hydroxyacrylamide]", "IC50": 40},
      {"smiles": "CN(C)CCn1c(-c2cccc(/C=C/C(=O)NO)c2)nc2ccccc21", "note": "[3-(3-(1-(2-(dimethylamino)ethyl)-1H-benzo[d]imidazol-2-yl)phenyl)-N-hydroxyacrylamide]", "IC50": 63}
    ]}
  ]
}
